Assay results from patent publication US10842892B2, “Methods and apparatus for synthesizing imaging agents, and intermediates thereof” (Lantheus Medical Imaging, Inc., priority 2010, dated 2020).
“And” between values parts separate entries of the source, which are not always exact repeats. Identical values can stand only once.

How the values were obtained:
[1] = test system: myocardial blood flow; conditions: humans, assumed, equivalent to pre-clinical studies; cited from earlier work
[2] = test system: healthy adults; assay: radiation dosimetry after single injection at rest (OLINDA/EXM, MIRD); assay type: in vivo, human
Procedure: This was a non-randomized, open-label, single-dose study. A total of 13 healthy adult subjects were enrolled and administered a single dose of imaging agent 1 at a single study center in the United States. Subjects were screened within 14 days prior to enrollment to confirm subject eligibility, and began baseline assessments at the study center the day before study drug administration. Subjects remained at the study center until completion of the Study Day 2 safety assessments (24±8 hours post-dose). A telephone call was made to study subjects 48±8 hours post-dose for adverse event (AE) monitoring. All subjects returned to the study center approximately one week (5-7 days) post-dose for a follow-up safety visit, and were contacted by telephone approximately 14-17 days post-dose for final serious AE monitoring.
On day 1, each subject received a 1-3 mL intravenous bolus injection of imaging agent 1 in a sterile solution of ≤5% ethanol containing ≤50 mg/mL sodium ascorbate in water, calculated to deliver approximately the target dose of imaging agent 1 at the time of injection. The dose was administered in less than 10 seconds, followed immediately by a 3-5 mL saline flush.
Dosimetry analyses. Estimates of radiation dosimetry for the standard organs of the adult male and female models and for the, salivary glands as well as the effective dose equivalent (EDE) (International Commission on Radiological Protection (ICRP), Recommendations of the International Commission on Radiological Protection, Publication 26. Ann ICRP. 1977; 1(3)) and the effective dose (ED) (International Commission on Radiological Protection (ICRP), 1990 Recommendations of the International Commission on Radiological Protection, 60. Ann ICRP. 1990; 21(1-3)) were determined using the OLINDA/EXM software (Stabin, M G, Sparks, R B, et al, OLINDA/EXM: the second-generation personal computer software for internal dose assessment in nuclear medicine.” J Nucl Med 2005 46(6):1023-7) Assessment of radiation dosimetry was based on the MIRD method, with data derived from imaging studies, using methods consistent with MIRD Pamphlet no. 16 (Siegel J A, Thomas S R, Stubbs J B, et al. MIRD pamphlet no. 16: Techniques for quantitative radiopharmaceutical biodistribution data acquisition and analysis for use in human radiation dose estimates. J Nucl Med. 1999 February; 40(2):37S-61S).
The attenuation corrected transverse image data slice planes were combined into a single three-dimensional image matrix for each subject and each time point using custom software. These images were then divided into 6 image sets (“anterior”, “posterior”, “salivary”, “thyroid”, “source”, and “full”) of combined coronal plane image data for each subject at each time point, grouping organs with similar anterior to posterior depths. This was done to optimize the ROI creation, and minimize background contribution to the organs contained in each combined coronal plane image. The “anterior” images contained stomach wall, heart wall, and urinary bladder. The “posterior” images contained kidneys, lumbar spine, and spleen (when visible). The “salivary” images contained the salivary glands (parotid and submandibular). The “thyroid” images contained the thyroid. The “full” images combined all of the coronal image planes that contained subject image data and was used for quantification of the brain and liver. The “source” images contained the calibration source.
Absolute radioactivity was determined by normalizing ROI sums by a calibration factor derived from the calibration source. Region counts were also adjusted for activity containing underlying and overlying tissue that was not part of the organ or tissue being quantified by utilization of background regions of interest. Total body region counts were also corrected for off body background counts. Appropriate normalization of region sizes for organ and adjacent regions were made. […]

[3] = test system: coronary artery disease (CAD); assay: Phase 2 diagnostic performance for coronary artery disease, PET versus SPECT; assay type: in vivo, human
Source text: 143 patients (Pts) from 21 centers, presenting with a broad spectrum of CAD pre-test likelihoods, underwent rest-stress Tc-99m labeled SPECT MPI and imaging agent 1 PET MPI. […] Their mean age was 64.5 (range: 36-85) years and 68 were males. % narrowing in each coronary artery was quantified blindly. 52/84 Pts had significant CAD (≥50% luminal diameter narrowing) and 32/84 had insignificant CAD/normal coronary arteries. In each patient, 17 myocardial segments were visually scored on rest and stress images by 3 independent, blinded readers and majority rule interpretation was determined in each patient for both PET and SPECT studies. Diagnostic performance of PET was compared to that of SPECT using ROC analysis.

[4] = N = 12, Void Interval = 3.5 hours

## CC(C)(C)n1ncc(OCc2ccc(COCC[18F])cc2)c(Cl)c1=O [imaging agent 1, 2-t-butyl-4-chloro-5-[4-(2-(^18F)fluoroethoxymethyl)-benzyloxy]-2H-pyridazin-3-1]
[1]
  first pass extraction fraction: 0.94
[2]; N = 12
  mean ED: 0.072 rem/mCi
  mean absorbed dose, heart wall: 0.18 rem/mCi
  mean absorbed dose, kidneys (critical organ): 0.24 rem/mCi
[2]; [4]
  ED, Mean: 0.019 mSv/MBq and 1.9E−02 mSv/MBq
  EDE, Mean: 2.2E−02 mSv/MBq
  absorbed dose estimate, Mean, Brain: 2.5E−02 mSv/MBq
  absorbed dose estimate, Mean, Breasts: 8.8E−03 mSv/MBq
  absorbed dose estimate, Mean, Gallbladder Wall: 1.7E−02 mSv/MBq
  absorbed dose estimate, Mean, Heart Wall: 0.048 mSv/MBq and 4.8E−02 mSv/MBq
  absorbed dose estimate, Mean, Kidneys: 0.066 mSv/MBq and 6.6E−02 mSv/MBq
  absorbed dose estimate, Mean, LLI Wall: 1.2E−02 mSv/MBq
  absorbed dose estimate, Mean, Liver: 3.9E−02 mSv/MBq
  absorbed dose estimate, Mean, Lungs: 1.1E−02 mSv/MBq
  absorbed dose estimate, Mean, Muscle: 1.0E−02 mSv/MBq
  absorbed dose estimate, Mean, Osteogenic Cells: 1.9E−02 mSv/MBq
  absorbed dose estimate, Mean, Ovaries: 1.2E−02 mSv/MBq
  absorbed dose estimate, Mean, Pancreas: 1.6E−02 mSv/MBq
  absorbed dose estimate, Mean, Red Marrow: 1.6E−02 mSv/MBq
  absorbed dose estimate, Mean, Salivary: 3.5E−02 mSv/MBq
  absorbed dose estimate, Mean, Skin: 7.9E−03 mSv/MBq
  absorbed dose estimate, Mean, Small Intestine: 1.3E−02 mSv/MBq
  absorbed dose estimate, Mean, Spleen: 1.6E−02 mSv/MBq
  absorbed dose estimate, Mean, Stomach Wall: 4.0E−02 mSv/MBq
  absorbed dose estimate, Mean, Testes: 9.2E−03 mSv/MBq
  absorbed dose estimate, Mean, Thymus: 1.1E−02 mSv/MBq
  absorbed dose estimate, Mean, Thyroid: 3.2E−02 mSv/MBq
  absorbed dose estimate, Mean, Total Body: 1.2E−02 mSv/MBq
  absorbed dose estimate, Mean, ULI Wall: 1.3E−02 mSv/MBq
  absorbed dose estimate, Mean, Urinary Bladder Wall: 2.3E−02 mSv/MBq
  absorbed dose estimate, Mean, Uterus: 1.2E−02 mSv/MBq
[2]; in vivo
  maximum injected dose without exceeding 1 rem ED: 14 mCi
  maximum injected dose without exceeding 10 mSv (1 rem) ED: 521 MBq
[2]; kidneys
  maximum injected dose without exceeding 50 mSv to the critical organ: 770 MBq
[3]; in vivo
  Diagnostic certainty of interpretation (% of cases with definitely abnormal/normal interpretation): 92.0%
  area under the ROC curve for overall diagnosis of CAD: 0.79±0.05
[3]; rest images
  % of images rated as either excellent or good: 96.8%
[3]; stress images
  % of images rated as either excellent or good: 99.2%
